Measured values from patent US20020111274A1, “1-alkyl-3-[1-(substituted phenyl) benzotriazol-6-yl] uracils” (BASF Aktiengesellschaft, priority 2000, published 2002).

What was measured:
Set-up in all cases: scale not given here
AMBEL Ragweed, Common [1] = test: Preemergence herbicidal evaluation, AMBEL; type: in vivo, Ambrosia artemisifolia, L.; conditions: preemergence
Summary of the method: (§1)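 Visual ratings were taken four to five weeks after application. Before that, cups sown with seed in potting soil received a spray of compound dissolved in aqueous acetone, equivalent to about 0.013 to 0.800 kg/ha, and stood on greenhouse benches under conventional care.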

GALAP Galium [2] = test: Postemergence herbicidal evaluation, GALAP; type: in vivo, Galium aparine; conditions: postemergence spray, rated about two-three weeks after treatment
Summary of the method: (§2)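 Visual injury rating ~2–3 wk post-spray; replicate tests averaged. Two-week-old seedlings; foliar spray at 40 psi; 0.006–0.400 kg ai/ha in 80/20 acetone/water + 1.0% methylated seed oil.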

CASOB Sicklepod [3] = test: Postemergence herbicidal evaluation, CASOB; type: in vivo, Cassia obtusifolia, L.; conditions: postemergence spray, rated about two-three weeks after treatment
Summary of the method: as §2

ORYSAT Rice, Tebonnet [4] = test: Postemergence herbicidal evaluation, ORYSAT; type: in vivo, Oryza sativa, (L.); conditions: postemergence spray, rated about two-three weeks after treatment
Summary of the method: as §2

CASOB Sicklepod [5] = test: Preemergence herbicidal evaluation, CASOB; type: in vivo, Cassia obtusifolia, L.; conditions: preemergence
Summary of the method: as §1

GLXMAW Soybean, Williams [6] = test: Postemergence herbicidal evaluation, GLXMAW; type: in vivo, Glycine max, (L.) Merr. cv Williams; conditions: postemergence spray, rated about two-three weeks after treatment
Summary of the method: as §2

SETVI Foxtail, Green [7] = test: Postemergence herbicidal evaluation, SETVI; type: in vivo, Setaria viridis, (L.) Beau; conditions: postemergence spray, rated about two-three weeks after treatment
Summary of the method: as §2

ECHOG Barnyardgrass [8] = test: Preemergence herbicidal evaluation, ECHOG; type: in vivo, Echinochloa crus-galli, (L.) Beau; conditions: preemergence
Summary of the method: as §1

ECHOG Barnyardgrass [9] = test: Postemergence herbicidal evaluation, ECHOG; type: in vivo, Echinochloa crus-galli, (L.) Beau; conditions: postemergence spray, rated about two-three weeks after treatment
Summary of the method: as §2

[10] = test system: TRZAWR Wheat, Winter, cv Riband; test: Postemergence herbicidal evaluation, TRZAWR; type: in vivo, Triticum aestivum; conditions: postemergence spray, rated about two-three weeks after treatment
Summary of the method: as §2

GALAP Galium [11] = test: Preemergence herbicidal evaluation, GALAP; type: in vivo, Galium aparine; conditions: preemergence
Summary of the method: as §1

ORYSAT Rice, Tebonnet [12] = test: Preemergence herbicidal evaluation, ORYSAT; type: in vivo, Oryza sativa, (L.); conditions: preemergence
Summary of the method: as §1

GLXMAW Soybean, Williams [13] = test: Preemergence herbicidal evaluation, GLXMAW; type: in vivo, Glycine max, (L.) Merr. cv Williams; conditions: preemergence
Summary of the method: as §1

ZEAMX Corn, Field [14] = test: Postemergence herbicidal evaluation, ZEAMX; type: in vivo, Zea mays, L. (Sammel-Bezeichnung); conditions: postemergence spray, rated about two-three weeks after treatment
Summary of the method: as §2

[15] = test system: TRZAWR Wheat, Winter, cv Riband; test: Preemergence herbicidal evaluation, TRZAWR; type: in vivo, Triticum aestivum; conditions: preemergence
Summary of the method: as §1

[16] = test system: CHEAL Lambsquarters, Common; test: Preemergence herbicidal evaluation, CHEAL; type: in vivo, Chenopodium album, L.; conditions: preemergence
Summary of the method: as §1

[17] = test system: IPOHE Morningglory, Ivyleaf; test: Postemergence herbicidal evaluation, IPOHE; type: in vivo, Ipomoea hederacea, (L.) Jacq.; conditions: postemergence spray, rated about two-three weeks after treatment
Summary of the method: as §2

ABUTH Velvetleaf [18] = test: Preemergence herbicidal evaluation, ABUTH; type: in vivo, Abutilon theophrasti, Medic.; conditions: preemergence
Summary of the method: as §1

[19] = test system: CHEAL Lambsquarters, Common; test: Postemergence herbicidal evaluation, CHEAL; type: in vivo, Chenopodium album, L.; conditions: postemergence spray, rated about two-three weeks after treatment
Summary of the method: as §2

SETVI Foxtail, Green [20] = test: Preemergence herbicidal evaluation, SETVI; type: in vivo, Setaria viridis, (L.) Beau; conditions: preemergence
Summary of the method: as §1

ABUTH Velvetleaf [21] = test: Postemergence herbicidal evaluation, ABUTH; type: in vivo, Abutilon theophrasti, Medic.; conditions: postemergence spray, rated about two-three weeks after treatment
Summary of the method: as §2

AMBEL Ragweed, Common [22] = test: Postemergence herbicidal evaluation, AMBEL; type: in vivo, Ambrosia artemisifolia, L.; conditions: postemergence spray, rated about two-three weeks after treatment
Summary of the method: as §2

[23] = test system: IPOHE Morningglory, Ivyleaf; test: Preemergence herbicidal evaluation, IPOHE; type: in vivo, Ipomoea hederacea, (L.) Jacq.; conditions: preemergence
Summary of the method: as §1

ZEAMX Corn, Field [24] = test: Preemergence herbicidal evaluation, ZEAMX; type: in vivo, Zea mays, L. (Sammel-Bezeichnung); conditions: preemergence
Summary of the method: as §1

COc1ccc(-n2nnc3cc(F)c(-n4c(=O)cc(C(F)(F)F)n(C)c4=O)cc32)cc1 [Example 27]
AMBEL herbicidal rating (AMBEL Ragweed, Common [1]; rate 0.016 kg/ha): 0.0
AMBEL herbicidal rating (AMBEL Ragweed, Common [1]; rate 0.032 kg/ha): 2.0
AMBEL herbicidal rating (AMBEL Ragweed, Common [1]; rate 0.062 kg/ha): 7.0
AMBEL herbicidal rating (AMBEL Ragweed, Common [1]; rate 0.125 kg/ha): 9.0
Postemergence herbicidal rating GALAP (GALAP Galium [2]; 0.008 kg/ha): 1.0
Postemergence herbicidal rating GALAP (GALAP Galium [2]; 0.016 kg/ha): 4.0
Postemergence herbicidal rating GALAP (GALAP Galium [2]; 0.032 kg/ha): 9.0
Postemergence herbicidal rating CASOB (CASOB Sicklepod [3]; 0.008 kg/ha): 1.0
Postemergence herbicidal rating CASOB (CASOB Sicklepod [3]; 0.016 kg/ha): 1.0
Postemergence herbicidal rating CASOB (CASOB Sicklepod [3]; 0.032 kg/ha): 6.0
Postemergence herbicidal rating ORYSAT (ORYSAT Rice, Tebonnet [4]; 0.008 kg/ha): 2.5
Postemergence herbicidal rating ORYSAT (ORYSAT Rice, Tebonnet [4]; 0.016 kg/ha): 4.5
Postemergence herbicidal rating ORYSAT (ORYSAT Rice, Tebonnet [4]; 0.032 kg/ha): 4.5
CASOB herbicidal rating (CASOB Sicklepod [5]; rate 0.016 kg/ha): 0.0
CASOB herbicidal rating (CASOB Sicklepod [5]; rate 0.032 kg/ha): 1.0
CASOB herbicidal rating (CASOB Sicklepod [5]; rate 0.062 kg/ha): 2.0
CASOB herbicidal rating (CASOB Sicklepod [5]; rate 0.125 kg/ha): 9.0
Postemergence herbicidal rating GLXMAW (GLXMAW Soybean, Williams [6]; 0.008 kg/ha): 5.0
Postemergence herbicidal rating GLXMAW (GLXMAW Soybean, Williams [6]; 0.016 kg/ha): 6.0
Postemergence herbicidal rating GLXMAW (GLXMAW Soybean, Williams [6]; 0.032 kg/ha): 6.0
Postemergence herbicidal rating SETVI (SETVI Foxtail, Green [7]; 0.008 kg/ha): 7.0
Postemergence herbicidal rating SETVI (SETVI Foxtail, Green [7]; 0.016 kg/ha): 4.0
Postemergence herbicidal rating SETVI (SETVI Foxtail, Green [7]; 0.032 kg/ha): 7.0
ECHCG herbicidal rating (ECHOG Barnyardgrass [8]; rate 0.016 kg/ha): 1.0
ECHCG herbicidal rating (ECHOG Barnyardgrass [8]; rate 0.032 kg/ha): 4.0
ECHCG herbicidal rating (ECHOG Barnyardgrass [8]; rate 0.062 kg/ha): 9.0
ECHCG herbicidal rating (ECHOG Barnyardgrass [8]; rate 0.125 kg/ha): 9.0
Postemergence herbicidal rating ECHCG (ECHOG Barnyardgrass [9]; 0.008 kg/ha): 1.0
Postemergence herbicidal rating ECHCG (ECHOG Barnyardgrass [9]; 0.016 kg/ha): 1.0
Postemergence herbicidal rating ECHCG (ECHOG Barnyardgrass [9]; 0.032 kg/ha): 2.0
Postemergence herbicidal rating TRZAWR ([10]; 0.008 kg/ha): 2.0
Postemergence herbicidal rating TRZAWR ([10]; 0.016 kg/ha): 4.0
Postemergence herbicidal rating TRZAWR ([10]; 0.032 kg/ha): 4.5
GALAP herbicidal rating (GALAP Galium [11]; rate 0.016 kg/ha): 1.0
GALAP herbicidal rating (GALAP Galium [11]; rate 0.032 kg/ha): 2.0
GALAP herbicidal rating (GALAP Galium [11]; rate 0.062 kg/ha): 9.0
GALAP herbicidal rating (GALAP Galium [11]; rate 0.125 kg/ha): 9.0
ORYSAT herbicidal rating (ORYSAT Rice, Tebonnet [12]; rate 0.016 kg/ha): 1.0
ORYSAT herbicidal rating (ORYSAT Rice, Tebonnet [12]; rate 0.032 kg/ha): 2.0
ORYSAT herbicidal rating (ORYSAT Rice, Tebonnet [12]; rate 0.062 kg/ha): 5.0
ORYSAT herbicidal rating (ORYSAT Rice, Tebonnet [12]; rate 0.125 kg/ha): 6.0
GLXMAW herbicidal rating (GLXMAW Soybean, Williams [13]; rate 0.016 kg/ha): 1.0
GLXMAW herbicidal rating (GLXMAW Soybean, Williams [13]; rate 0.032 kg/ha): 1.0
GLXMAW herbicidal rating (GLXMAW Soybean, Williams [13]; rate 0.062 kg/ha): 5.0
GLXMAW herbicidal rating (GLXMAW Soybean, Williams [13]; rate 0.125 kg/ha): 9.0
Postemergence herbicidal rating ZEAMX (ZEAMX Corn, Field [14]; 0.008 kg/ha): 4.5
Postemergence herbicidal rating ZEAMX (ZEAMX Corn, Field [14]; 0.016 kg/ha): 5.0
Postemergence herbicidal rating ZEAMX (ZEAMX Corn, Field [14]; 0.032 kg/ha): 5.5
TRZAWR herbicidal rating ([15]; rate 0.016 kg/ha): 1.0
TRZAWR herbicidal rating ([15]; rate 0.032 kg/ha): 2.0
TRZAWR herbicidal rating ([15]; rate 0.062 kg/ha): 3.0
TRZAWR herbicidal rating ([15]; rate 0.125 kg/ha): 2.0
CHEAL herbicidal rating ([16]; rate 0.016 kg/ha): 9.0
CHEAL herbicidal rating ([16]; rate 0.032 kg/ha): 9.0
CHEAL herbicidal rating ([16]; rate 0.062 kg/ha): 9.0
CHEAL herbicidal rating ([16]; rate 0.125 kg/ha): 9.0
Postemergence herbicidal rating IPOHE ([17]; 0.008 kg/ha): 9.0
Postemergence herbicidal rating IPOHE ([17]; 0.016 kg/ha): 9.0
Postemergence herbicidal rating IPOHE ([17]; 0.032 kg/ha): 9.0
ABUTH herbicidal rating (ABUTH Velvetleaf [18]; rate 0.032 kg/ha): 6.0
ABUTH herbicidal rating (ABUTH Velvetleaf [18]; rate 0.062 kg/ha): 9.0
ABUTH herbicidal rating (ABUTH Velvetleaf [18]; rate 0.125 kg/ha): 9.0
Postemergence herbicidal rating CHEAL ([19]; 0.008 kg/ha): 4.0
Postemergence herbicidal rating CHEAL ([19]; 0.016 kg/ha): 7.0
Postemergence herbicidal rating CHEAL ([19]; 0.032 kg/ha): 9.0
SETVI herbicidal rating (SETVI Foxtail, Green [20]; rate 0.016 kg/ha): 9.0
SETVI herbicidal rating (SETVI Foxtail, Green [20]; rate 0.032 kg/ha): 9.0
SETVI herbicidal rating (SETVI Foxtail, Green [20]; rate 0.062 kg/ha): 9.0
SETVI herbicidal rating (SETVI Foxtail, Green [20]; rate 0.125 kg/ha): 9.0
Postemergence herbicidal rating ABUTH (ABUTH Velvetleaf [21]; 0.008 kg/ha): 9.0
Postemergence herbicidal rating ABUTH (ABUTH Velvetleaf [21]; 0.016 kg/ha): 9.0
Postemergence herbicidal rating ABUTH (ABUTH Velvetleaf [21]; 0.032 kg/ha): 9.0
Postemergence herbicidal rating AMBEL (AMBEL Ragweed, Common [22]; 0.008 kg/ha): 5.0
Postemergence herbicidal rating AMBEL (AMBEL Ragweed, Common [22]; 0.016 kg/ha): 9.0
Postemergence herbicidal rating AMBEL (AMBEL Ragweed, Common [22]; 0.032 kg/ha): 9.0
IPOHE herbicidal rating ([23]; rate 0.016 kg/ha): 0.0
IPOHE herbicidal rating ([23]; rate 0.032 kg/ha): 1.0
IPOHE herbicidal rating ([23]; rate 0.062 kg/ha): 1.0
IPOHE herbicidal rating ([23]; rate 0.125 kg/ha): 5.0
ZEAMX herbicidal rating (ZEAMX Corn, Field [24]; rate 0.016 kg/ha): 2.0
ZEAMX herbicidal rating (ZEAMX Corn, Field [24]; rate 0.032 kg/ha): 4.0
ZEAMX herbicidal rating (ZEAMX Corn, Field [24]; rate 0.062 kg/ha): 7.0
ZEAMX herbicidal rating (ZEAMX Corn, Field [24]; rate 0.125 kg/ha): 7.0
